{"source": "paper PMC13198932", "about": "“Pyrazolone-based ERO1 inhibitors in ERO1-driven triple-negative breast cancer and SEPN1-related myopathy: Structure–activity relationship and therapeutic potential” (Pharmacological research, 2025)", "key": {"E0771 cells": {"system": "E0771 cells", "assay": "MTS assay of metabolic activity in E0771 cells", "type": "cell-based, murine", "conditions": "E0771, dose-response, 24 h, 1 % FBS", "method": "Six thousand cells (MDAMB231 and E0771) per well were seeded in 96-well plates and cultured in medium containing 1 % FBS. Cells were treated with varying concentrations of compounds and, after 24 h, incubated with MTS [3-(4,5-dimethylthiazol-2-yl)-5-(3-carboxymethoxyphenyl)-2-(4 sulfophenyl)2Htetrazolium]and PMS (phenazine methosulfate), following the instructions of the CellTiter 96® Aqueous Non-Radioactive Cell Proliferation Assay (Promega). Measurements were performed using a TECAN Infinite M200 plate reader with […] at 490 nm."}, "ERO1 in E0771 cells": {"target": "T1, ERO1 in E0771 cells (Mus musculus, UniProt Q8R180)", "T1 construct": "endogenous in cells; host or cells: E0771", "T1 sequence (Q8R180 24-464)": "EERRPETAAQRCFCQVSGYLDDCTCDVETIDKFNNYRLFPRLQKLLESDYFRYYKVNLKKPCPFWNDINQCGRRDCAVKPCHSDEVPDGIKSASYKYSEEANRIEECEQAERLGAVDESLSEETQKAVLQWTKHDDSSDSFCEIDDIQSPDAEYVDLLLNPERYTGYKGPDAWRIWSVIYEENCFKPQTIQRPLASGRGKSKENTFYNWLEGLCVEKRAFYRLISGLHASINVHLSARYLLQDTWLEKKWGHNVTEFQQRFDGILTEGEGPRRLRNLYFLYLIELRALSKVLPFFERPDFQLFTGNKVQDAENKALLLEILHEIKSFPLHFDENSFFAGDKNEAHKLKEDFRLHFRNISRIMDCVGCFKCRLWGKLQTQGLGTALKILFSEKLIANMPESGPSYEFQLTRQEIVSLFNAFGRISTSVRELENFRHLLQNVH", "assay": "ERO1 redox state by non-reducing immunoblot in E0771 cells", "type": "cell-based, murine", "conditions": "E0771, Fig. 4F", "method": "MDAMB231 and E0771 cells were maintained in Dulbecco’s Modified Eagle’s Medium supplemented with 1 % fetal bovine serum and seeded at 70 % confluency in six-well plates one day prior to the experiment. Cells were treated with DTT (10 mM) and/or ERO1A inhibitors for 1–5 h. At the time of collection, phosphate-buffered saline containing 10 mM NEM was added, and cells were incubated on ice for 10 min in lysis buffer (50 mM Tris-HCl, pH 7.4; 150 mM NaCl; 1 % Triton X-100; 0.1 % SDS; 1 % sodium deoxycholate; protease inhibitors; and 10 mM NEM). Protein concentrations were determined using the BCA assay, and equal amounts of protein were separated by non-reducing SDS-PAGE followed by immunoblotting with a polyclonal antibody against ERO1A [33]."}, "WT and SEPN1 KO myotubes": {"system": "WT and SEPN1 KO myotubes", "assay": "TMRM staining of mitochondrial membrane potential in WT and SEPN1 KO myotubes", "type": "cell-based, mice", "conditions": "1–5 μM, 16 h treatment", "method": "Muscle stem cells were isolated from muscles of 1-month-old wild-type (WT) and SEPN1 knockout (KO) mice using a tissue dissociation protocol with the gentleMACS™ Octo Dissociator with Heaters (Miltenyi Biotec, Bergisch Gladbach, Germany), followed by magnetic depletion. […]\nAfter 16 h of treatment with EN460 or I29 in differentiation medium, the culture medium was removed and replaced with the TMRM staining solution for the assessment of mitochondrial membrane potential. […] TMRM fluorescence was acquired at λexc 561 nm / λem 595 nm by a Nikon A1 confocal system equipped with an Okolab stage incubator (CO2 5 %, 37°C, 90 % humidity) immediately after TMRM and over a 10-minute baseline period with 65 s time interval. […] Data were analyzed using ImageJ. Briefly, background noise was set to NaN and the remaining signal quantified as mean pixel gray values. Data were expressed as ΔF/F0 (F0= mean of baseline signal)."}, "[1]": {"system": "WT and SEPN1 KD C2C12 muscle cells", "assay": "Real-time quantitative RT-PCR of ER stress markers BIP, CHOP, ERO1", "type": "cell-based", "conditions": "2 μM", "from_the_text": "RNA from WT and SEPN1KD C2C12 was reverse-transcribed and analyzed using the Applied Biosystems’ real-time PCR System and the ΔΔCt method. Relative gene expression in cells was normalized to Actin mRNA levels as in [27]."}, "[2]": {"design": "method as in PMID 37132383", "conditions": "cited from earlier work"}}, "data": [{"smiles": "O=C1/C(=C/c2ccc(-c3ccccc3)o2)C(C(F)(F)F)=NN1c1ccccc1F", "note": "[I29]", "values": [{"measurement": "metabolic activity (MTS assay)", "setting": "E0771 cells", "result": "superior efficacy of I29 over EN460"}, {"measurement": "ERO1 redox assay compared with EN460", "setting": "ERO1 in E0771 cells", "result": "superior efficacy of I29 over EN460"}, {"measurement": "TMRM fluorescence (mitochondrial membrane potential)", "setting": "WT and SEPN1 KO myotubes", "result": "significant increase in TMRM fluorescence"}, {"measurement": "CHOP expression", "setting": "[1]", "result": "downregulate CHOP expression"}]}, {"smiles": "O=C(O)c1cc(N2N=C(C(F)(F)F)/C(=C\\c3ccc(-c4ccccc4)o3)C2=O)ccc1Cl", "note": "[EN460, reference compound]", "values": [{"measurement": "aqueous solubility", "setting": "[2]", "result": "poor aqueous solubility"}]}]}
